Entries after “also recorded” stand apart in the source; their conditions may differ. Where two headings read alike, the source gives them in different places.
Columns and labels:
FOXO3 = FOXO3 siRNA knockdown: dependency for H2O2-resistance; assay type: cell-based, human
Method: For qPCR analysis, WI-38 cells were treated with small molecules (at 10 μM) (biological quadruplicates) for 24 hrs and processed for RNA isolation and reverse transcription (RT) with the Cells-to-Ct Kit (Life Technologies), following manufacturer's instructions. RT products were diluted with H2O and used for qPCR analysis on an ABI 7300 system (Life Technologies) (technical triplicates). Relative expression levels of target genes were normalized to the genes B2M, PPIA and GAPDH. To knock down the expression of FOXO3 or NRF2, WI-38 cells were transfected, using the RNAiMAX reagents (Life Technologies), with siRNA oligos (at 10 nM final concentration, 10 ml culture medium) for FOXO3 (Life Technologies) or NRF2 (Integrated DNA Technologies) on 10-cm petri dishes for 36 hrs, and then detached and aliquoted onto 96-well (for qPCR analysis) or 384-well plates (for H2O2-stress treatment). ˜24 hrs later, small molecules were introduced and incubated with cells for 24 hrs. Cells were then either processed with the Cells-to-Ct Kit to prepare RT products for qPCR analysis or subjected to H2O2 (700 μM) for 3 hrs and assayed for viability. The knockdown efficiency of FOXO3 or NRF2 was checked at 36 hrs post-transfection and at the end as well. […]
Applicants used siRNA to knock down FOXO3 expression by ˜70% in an attempt to identify whether the activation of these genes depends on activity of FOXO3 and/or NRF2. […] We used siRNA to knock down FOXO3 expression by ˜60% to 70% (FIG. 3; see data in Table 6). […] (Given the caveat that FOXO3 was not fully knocked down, partial dependency was scored when the H2O2-resistance capacity was reduced by at least 25% but less than 50% upon siRNA knockdown). At least for Gr-7A and Gr-7C, which are structurally related, the observed FOXO3-dependency for H2O2-resistance is consistent with their strong effects to induce FOXO3 target genes (Tables 1a-1f, Table 6, & Table 15), including SOD2 and GADD45A.

C. elegans = C. elegans lifespan assays (liquid and plate); assay type: in vivo, Caenorhabditis elegans; settings: for ILS at 66 µM / ILS at 60 µM: Caenorhabditis elegans; for Extension of C. elegans' lifespan (qualitative): in at least 3 to 4 trials, group range ~10% to ~50%; for O = Life span- extending scores in worms: score scale 0 to 2, 4 to 6 independent trials; for M = Lifespan-extending scores in worms: summary score
human protein targets = settings: PubChem database queries; cited from earlier work
[1] = tested on: HTB-178 lung tumor cells (EGFR+, PIK3CA+, RB1−, TP53−); experiment: Killing effects on HTB-178 tumor cells; assay type: cell-based, human; settings: Assay 1(y); at 10 uM, 1st
[2] = Assay 2(z), 1.0 × 10^9 bacteria/ml, wild type + FuDR (2012 July), read-out: Lifespan assay in liquid
[3] = Assay 3(aa), 2.5 × 10^9 bacteria/ml, wild type + FuDR, read-out: Lifespan assay in liquid
[4] = Assay 4(ab), 2.0 × 10^10 bacteria/ml, CF512 worms, no FuDR, read-out: Lifespan assay on plates
[5] = Assay 5(ac), 1.0 × 10^11 bacteria/ml, CF512 worms, no FuDR, read-out: Lifespan assay on plates
[6] = 60 μM, in liquid, wild type, with FuDR, 1.0 × 10^9 bacteria/ml, read-out: relative change of mean lifespan vs control, Trial 1
[7] = 60 μM, in liquid, wild type, with FuDR, 2.5 × 10^9 bacteria/ml, read-out: relative change of mean lifespan vs control, Trial 2
[8] = 60 μM, on plate, CF512 temperature-sensitive sterile animals, without FuDR, 2.0 × 10^10 bacteria/ml, read-out: relative change of mean lifespan vs control, Trial 3

SMILES	I = FOXO3-dependency for H2O2-resistance (FOXO3; score)	I = FOXO3-dependency for H2O2-resistance (FOXO3; summary score)	ILS at 66 µM (C. elegans; [2]) [%]	ILS at 66 µM (C. elegans; [3]) [%]	ILS at 66 µM (C. elegans; [4]) [%]	ILS at 66 µM (C. elegans; [5]) [%]	Extension of C. elegans' lifespan (qualitative) (C. elegans)	O = Life span- extending scores in worms (C. elegans)	M = Lifespan-extending scores in worms (C. elegans)	Potential targets: human protein targets (confirmed) (human protein targets)	ILS at 60 µM (C. elegans; [6]) [%]	ILS at 60 µM (C. elegans; [7]) [%]	ILS at 60 µM (C. elegans; [8]) [%]	Potential killing effects on HTB-178 tumor cells, 1st [1]	further results
O=[N+]([O-])c1ccccc1S(=O)(=O)Nc1cccc2cccnc12 [Gr-3A]	0	0	33.4	14.2	16.3	8.4	could extend animal's lifespan	2 (2 for observed in more than 2 trials)	2 (2 for observed in more than 2 trials)	ADRBK1, APLNR, BARD1, BAZ2B, BRCA1, CCR6, DRD3, GMNN, IL1B,; also recorded: MDM2, MDM4, NFE2L2, NFKBIA, NOD1, NOD2, OPRK1, RBBP8, RELA,; also recorded: SIX1, SMAD3, TDP1					
Cc1ccc(S(=O)(=O)Nc2cccc3cccnc23)cc1 [Gr-3B]	0	0	13.7	12.5	8.1		could extend animal's lifespan	2 (2 for observed in more than 2 trials)	2 (2 for observed in more than 2 trials)	ADRB2, AGTR1, APLNR, ARNT, BARD1, BRCA1, CCR6, CFTR, CHRM4,; also recorded: CXCR6, DRD3, EPAS1, GOPC, HIF1A, HTT, IL1B, MAP1LC3A, MDM2,; also recorded: MDM4, MITF, NFE2L2, NOD1, NOD2, NOD2, RR2E3, OPRD1, OPRK1,; also recorded: OPRM1, PRNP, RIPK2, S1PR1, S1PR4, SIX1, SLC12A5, SMAD3, TACC3,; also recorded: TARDBP, TDP1, TLR9, TNF	13.7	12.5	8.1	YES;	
Nc1ccccc1S(=O)(=O)Nc1cccc2cccnc12 [Gr-3C]	0	0	18.9	11.9	8		could extend animal's lifespan	2 (2 for observed in more than 2 trials)	2 (2 for observed in more than 2 trials)	GAPDH, NFKBIA, RELA					ILS at 60 µM (C. elegans; read-out: relative change of mean lifespan vs control, Trial 1): 18.9%; ILS at 60 µM (C. elegans; read-out: relative change of mean lifespan vs control, Trial 2): 11.9%; ILS at 60 µM (C. elegans; read-out: relative change of mean lifespan vs control, Trial 3): 8%
O=C(/C(=C/c1ccc(Cl)cc1)c1nc2ccccc2[nH]1)c1ccccc1 [Gr-4D]	0	0	50.8	9	22.2	11.3	could extend animal's lifespan	2 (2 for observed in more than 2 trials)	2 (2 for observed in more than 2 trials)	ABHD5, ATXN2, BARD1, BRCA, CFTR, CHRM1, CHRM4, CYP2C9, CYP3A4,; also recorded: DRD3, EPAS1, GMNN, GPR183, HIF1A, HNF4A, HTT, IDH1, IL1B, MAPT,; also recorded: MDM2, MDM4, MITF, NFKB1, NOD1, NOD2, PLIN5, RELA, SMAD3, TDP1,; also recorded: TNF, TNFRSF10B, TUBB	50.8	9	22.2	YES;	FOXO3-dependency for H2O2-resistance, at 10 uM (experiment 3) - with & without H2O2 (FOXO3; 10 uM, experiment 3, with & without H2O2): Partial; FOXO3-dependency for H2O2-resistance (experiment 3) (FOXO3; 10 uM, with & without H2O2, FOXO3 knockdown in WI-38 cells, YES = resistance reduced by at least 50%, partial = 25% to 50%): Partial; Requirement of FOXO3 to promote H2O2-resistance (FOXO3; FOXO3 siRNA, at least 2 of 3 independent experiments): not FOXO3; relative change of mean lifespan vs control, Trial 6 (confirmative) (C. elegans; 60 μM, on plate, temperature-sensitive sterile animals, without FuDR, 1.0 × 10^11 bacteria/ml): +11.1%; relative change of mean lifespan vs control, Trial 5 (confirmative) (C. elegans; 60 μM, on plate, temperature-sensitive sterile animals, without FuDR, 2.0 × 10^10 bacteria/ml): +39.4%; Lifespan, average increase (C. elegans; 4 or more trials): 24.0%; ILS at 60 µM (C. elegans; 60 μM, on plate, CF512 temperature-sensitive sterile animals, without FuDR, 1.0 × 10^11 bacteria/ml, read-out: relative change of mean lifespan vs control, Trial 4): 11.3%; ILS at 66 µM (C. elegans; Assay 6(ad), 2.0 × 10^10 bacteria/ml, CF512 worms, no FuDR, read-out: Lifespan assay on plates): 39.4%; ILS at 66 µM (C. elegans; Assay 7(ae), 1.0 × 10^11 bacteria/ml, CF512 worms, no FuDR, read-out: Lifespan assay on plates): 11.1%; Lifespan extension of C. elegans (C. elegans; across independent trials): ≤ 50%; Trials with lifespan extension (C. elegans; positive of total trials): 4 of 4; Lifespan, mean (FIG. 6B) (C. elegans; temperature-sensitive sterile rollers, on plate, without FuDR, 25° C. then ~22° C., control 18.4±0.4): 22.5±0.4; Lifespan increase (FIG. 6A) (C. elegans; wild-type, in liquid, with FuDR, 20° C., ~60 μM): ~51.2%; Lifespan, mean±SD (FIG. 6A) (C. elegans; wild-type, in liquid, with FuDR, 20° C., ~60 μM, control 21.1±0.5): 31.9±1.1

Source: patent US11413278B2, “Compounds and methods for promoting stress resistance” (priority 2015, dated 2022)
